Where two headings read alike, the source gives them in different places.
Legend:
Type in all cases: in vivo
[1] = test system: VK7 2014 (An. coluzzii, DDT & pyrethroid resistant); experiment: Example B4: bottle based cross resistance study (CDC bottle assay), strain VK7 2014; set-up: unit not given here; conditions: 1 h bottle exposure
Description: (§1) Based on the “CDC bottle assay” (described at http://www.cdc.gov/malaria/resources/pdf/fsp/ir_manual/ir_cdc_bioassay_en.pdf) 1 ml of ethanol containing a test compound at a defined concentration was added to a 250 ml glass bottle and the bottles were placed on a rolling table to coat the inner surfaces as the solvent evaporated. Once dry, twenty five non-blood fed adult female mosquitoes of the appropriate species and strains (each three day old) were aspirated from the stock culture and gently blown into the exposure bottles. The lid of the bottle was replaced and the bottle placed upright out of direct sun light under standard culture conditions, nominally 26° C. and 60-80% relative humidity.
(§2) A stopwatch was started, and the assessment of the knock-down were made after 15 mins and 60 minutes. A mosquito was said to be knocked down if it was unable to stand, following the CDC definition. The bottles were replaced in an upright position when not being assessed.
(§3) After one hour the mosquitoes were carefully removed from the bottle with an aspirator and placed in a recovery cup. The mosquitoes were supplied with a 10% sucrose solution on a cotton wool bung, and stored under culture conditions. Assessments of the mortality were made after 24 hours.
(§4) Each treatment was replicated a minimum of three times, with the exception of the Banfora strain, where only a single replicate was undertaken, with the mean knockdown or mortality recorded. In each study, a set of bottles was infested with a known insecticide susceptible strain of mosquitoes from the same genera as the resistant strains.

[2] = test system: Kisumu sus (Anopheles gambiae, susceptible); experiment: Example B4: bottle based cross resistance study (CDC bottle assay), strain Kisumu sus; conditions: read-out: mean knockdown or mortality (Table B4 does not name the quantity)
Description: as §1, §2, §3, §4

[3] = test system: Tiassalé 13 (An. gambiae, pyrethroid resistant); experiment: Example B4: bottle based cross resistance study (CDC bottle assay), strain Tiassalé 13; conditions: Anopheles gambiae, read-out: mean knockdown or mortality (Table B4 does not name the quantity)
Description: as §1, §2, §3, §4

Anopheles stephensi = experiment: Example B3: treated 6-well plate contact test, adult female Anopheles stephensi; conditions: for mortality at 0.3125 ppm / mortality at 0.625 ppm / mortality at 1.25 ppm / mortality at 2.5 ppm: Anopheles stephensi; for Knockdown 1 h: mean of two replicates
Description: The individual wells of six (6) well tissue culture plates were treated with 250 μl of an ethanol solution containing a test compound at a defined concentration. Once the deposits were dry, ten non-blood fed adult female Anopheles stephensi (each between two to five day old) were added to each well, and sustained with a 10% sucrose solution in a cotton wool plug. Assessment of the knockdown was carried our after 1 hour, and mortality after 24 hours and 48 hours. Each treatment was replicated twice, with the mean mortality recorded.

[4] = test system: Anopheles stephensi (Indian Malaria Mosquito); experiment: Example B2: treated 12-well plate contact test, adult female Anopheles stephensi; conditions: for mortality at 0.2 ppm / mortality at 2 ppm / mortality at 20 ppm: Anopheles stephensi
Description: […] Once the deposits were dry, five non-blood fed adult female Anopheles stephensi (between two to five day old) were added to each well, and sustained with a 10% sucrose solution in a cotton wool plug. Assessment of the knockdown was carried our after 1 hour, and mortality after 24 hours and 48 hours.

[5] = test system: Banfora (An. gambiae, DDT & pyrethroid resistant); experiment: Example B4: bottle based cross resistance study (CDC bottle assay), strain Banfora; conditions: Anopheles gambiae, read-out: knockdown or mortality (Table B4 does not name the quantity)
Description: as §1, §2, §3, §4

[6] = test system: Aedes aegypti (Yellow Fever Mosquito); experiment: whole plant or invertebrate; conditions: for mortality at 0.2 ppm / mortality at 2 ppm / mortality at 20 ppm: Aedes aegypti
Description: […] Once the deposits were dry, five non-blood fed adult female Aedes aegypti (between two to five day old) were added to each well, and sustained with a 10% sucrose solution in a cotton wool plug. Assessment of the knockdown was carried our after 1 hour, and mortality after 24 hours and 48 hours.

[7] = Tiassalé 13, rate 6.25 ppm, 1 h bottle exposure
[8] = Tiassalé 13, rate 12.5 ppm, 1 h bottle exposure
[9] = Tiassalé 13, rate 25 ppm, 1 h bottle exposure
[10] = 24 h, read-out: adult mortality 24 h
[11] = 48 h, read-out: adult mortality 48 h
[12] = Banfora, rate 6.25 ppm, 1 h bottle exposure, single replicate
[13] = Banfora, rate 12.5 ppm, 1 h bottle exposure, single replicate
[14] = Banfora, rate 25 ppm, 1 h bottle exposure, single replicate
[15] = 0.2 ppm, 24 h, read-out: adult mortality 24 h
[16] = 0.2 ppm, 48 h, read-out: adult mortality 48 h
[17] = 2 ppm, 24 h, read-out: adult mortality 24 h
[18] = 2 ppm, 48 h, read-out: adult mortality 48 h
[19] = 20 ppm, 24 h, read-out: adult mortality 24 h
[20] = 20 ppm, 48 h, read-out: adult mortality 48 h

SMILES: CO/C=C(/C(=O)OC)c1ccccc1Oc1nc(Cl)c(C(F)(F)F)s1 [Compound of formula I, Methyl (E)-2-[2-[4-chloro-5-(trifluoromethyl)thiazol-2-yl]oxyphenyl]-3-methoxy-prop-2-enoate]
- mean knockdown or mortality (Table B4 does not name the quantity) ([1]; VK7 2014, rate 6.25 ppm): 10
- mean knockdown or mortality (Table B4 does not name the quantity) ([1]; VK7 2014, rate 12.5 ppm): 61
- mean knockdown or mortality (Table B4 does not name the quantity) ([1]; VK7 2014, rate 25 ppm): 100
- percent knockdown or mortality at 6.25 ppm ([2]; Kisumu sus, rate 6.25 ppm, 1 h bottle exposure): 74%
- percent knockdown or mortality at 12.5 ppm ([2]; Kisumu sus, rate 12.5 ppm, 1 h bottle exposure): 99%
- percent knockdown or mortality at 25 ppm ([2]; Kisumu sus, rate 25 ppm, 1 h bottle exposure): 100%
- mean knockdown or mortality at 6.25 ppm [3, 7]: 69%
- mean knockdown or mortality at 12.5 ppm [3, 8]: 81%
- mean knockdown or mortality at 25 ppm [3, 9]: 100%
- mortality at 0.3125 ppm (Anopheles stephensi; 24 h, read-out: Mortality 24 h): 63%
- mortality at 0.625 ppm (Anopheles stephensi; 24 h, read-out: Mortality 24 h): 80%
- mortality at 1.25 ppm (Anopheles stephensi; 24 h, read-out: Mortality 24 h): 98%
- mortality at 2.5 ppm (Anopheles stephensi; 24 h, read-out: Mortality 24 h): 100%
- mortality at 0.3125 ppm (Anopheles stephensi; 48 h, read-out: Mortality 48 h): 65%
- mortality at 0.625 ppm (Anopheles stephensi; 48 h, read-out: Mortality 48 h): 82%
- mortality at 1.25 ppm (Anopheles stephensi; 48 h, read-out: Mortality 48 h): 100%
- mortality at 2.5 ppm (Anopheles stephensi; 48 h, read-out: Mortality 48 h): 100%
- Knockdown 1 h (Anopheles stephensi; rate 0.3125 ppm): 20
- Knockdown 1 h (Anopheles stephensi; rate 0.625 ppm): 43
- Knockdown 1 h (Anopheles stephensi; rate 1.25 ppm): 70
- Knockdown 1 h (Anopheles stephensi; rate 2.5 ppm): 87
- adult knockdown 1 h ([4]; 0.2 ppm): 0
- adult knockdown 1 h ([4]; 2 ppm): 80
- adult knockdown 1 h ([4]; 20 ppm): 100
- mortality at 0.2 ppm [4, 10]: 20%
- mortality at 2 ppm [4, 10]: 100%
- mortality at 20 ppm [4, 10]: 100%
- mortality at 0.2 ppm [4, 11]: 20%
- mortality at 2 ppm [4, 11]: 100%
- mortality at 20 ppm [4, 11]: 100%
- knockdown or mortality (%) at 6.25 ppm [5, 12]: 26%
- knockdown or mortality (%) at 12.5 ppm [5, 13]: 52%
- knockdown or mortality (%) at 25 ppm [5, 14]: 100%
- adult knockdown 1 h ([6]; 0.2 ppm): 0
- adult knockdown 1 h ([6]; 2 ppm): 20
- adult knockdown 1 h ([6]; 20 ppm): 100
- mortality at 0.2 ppm [6, 15]: 20%
- mortality at 0.2 ppm [6, 16]: 20%
- mortality at 2 ppm [6, 17]: 60%
- mortality at 2 ppm [6, 18]: 80%
- mortality at 20 ppm [6, 19]: 100%
- mortality at 20 ppm [6, 20]: 100%

SMILES: CO/C=C(/C(=O)OC)c1ccccc1Oc1ncc(C(F)(F)F)s1 [Compound of formula II, Methyl (E)-3-methoxy-2-[2-[5-(trifluoromethyl)thiazol-2-yl]oxyphenyl]-prop-2-enoate]
- mean knockdown or mortality (Table B4 does not name the quantity) ([1]; VK7 2014, rate 6.25 ppm): 7
- mean knockdown or mortality (Table B4 does not name the quantity) ([1]; VK7 2014, rate 12.5 ppm): 18
- mean knockdown or mortality (Table B4 does not name the quantity) ([1]; VK7 2014, rate 25 ppm): 100
- percent knockdown or mortality at 6.25 ppm ([2]; 1 h): 61%
- percent knockdown or mortality at 12.5 ppm ([2]; 1 h): 33%
- percent knockdown or mortality at 25 ppm ([2]; 1 h): 100%
- mean knockdown or mortality at 6.25 ppm [3, 7]: 55%
- mean knockdown or mortality at 12.5 ppm [3, 8]: 46%
- mean knockdown or mortality at 25 ppm [3, 9]: 100%
- mortality at 0.3125 ppm (Anopheles stephensi; 24 h, read-out: Mortality 24 h): 15%
- mortality at 0.625 ppm (Anopheles stephensi; 24 h, read-out: Mortality 24 h): 33%
- mortality at 1.25 ppm (Anopheles stephensi; 24 h, read-out: Mortality 24 h): 83%
- mortality at 2.5 ppm (Anopheles stephensi; 24 h, read-out: Mortality 24 h): 93%
- mortality at 0.3125 ppm (Anopheles stephensi; 48 h, read-out: Mortality 48 h): 22%
- mortality at 0.625 ppm (Anopheles stephensi; 48 h, read-out: Mortality 48 h): 30%
- mortality at 1.25 ppm (Anopheles stephensi; 48 h, read-out: Mortality 48 h): 88%
- mortality at 2.5 ppm (Anopheles stephensi; 48 h, read-out: Mortality 48 h): 97%
- Knockdown 1 h (Anopheles stephensi; rate 0.3125 ppm): 13
- Knockdown 1 h (Anopheles stephensi; rate 0.625 ppm): 27
- Knockdown 1 h (Anopheles stephensi; rate 1.25 ppm): 48
- Knockdown 1 h (Anopheles stephensi; rate 2.5 ppm): 73
- adult knockdown 1 h ([4]; 0.2 ppm): 0
- adult knockdown 1 h ([4]; 2 ppm): 0
- adult knockdown 1 h ([4]; 20 ppm): 100
- mortality at 0.2 ppm [4, 10]: 0%
- mortality at 2 ppm [4, 10]: 80%
- mortality at 20 ppm [4, 10]: 100%
- mortality at 0.2 ppm [4, 11]: 0%
- mortality at 2 ppm [4, 11]: 100%
- mortality at 20 ppm [4, 11]: 100%
- knockdown or mortality (%) at 6.25 ppm [5, 12]: 13%
- knockdown or mortality (%) at 12.5 ppm [5, 13]: 33%
- knockdown or mortality (%) at 25 ppm [5, 14]: 100%
- adult knockdown 1 h ([6]; 0.2 ppm): 0
- adult knockdown 1 h ([6]; 2 ppm): 0
- adult knockdown 1 h ([6]; 20 ppm): 100
- mortality at 0.2 ppm [6, 15]: 0%
- mortality at 0.2 ppm [6, 16]: 0%
- mortality at 2 ppm [6, 17]: 0%
- mortality at 2 ppm [6, 18]: 0%
- mortality at 20 ppm [6, 19]: 100%
- mortality at 20 ppm [6, 20]: 100%

SMILES: CC1(C)C(C=C(Cl)Cl)C1C(=O)OCc1cccc(Oc2ccccc2)c1 (stereo not drawn) [Permethrin]
- mean knockdown or mortality (Table B4 does not name the quantity) ([1]; VK7 2014, rate 6.25 ppm): 5
- mean knockdown or mortality (Table B4 does not name the quantity) ([1]; VK7 2014, rate 12.5 ppm): 3
- mean knockdown or mortality (Table B4 does not name the quantity) ([1]; VK7 2014, rate 25 ppm): 7
- percent knockdown or mortality at 5 ppm ([2]; 1 h): 100%
- percent knockdown or mortality at 10 ppm ([2]; 1 h): 100%
- percent knockdown or mortality at 20 ppm ([2]; 1 h): 100%
- mean knockdown or mortality at 6.25 ppm ([3]; 1 h): 13%
- mean knockdown or mortality at 12.5 ppm ([3]; 1 h): 45%
- mean knockdown or mortality at 25 ppm ([3]; 1 h): 69%
- knockdown or mortality (%) at 6.25 ppm ([5]; 1 h): 14%
- knockdown or mortality (%) at 12.5 ppm ([5]; 1 h): 38%
- knockdown or mortality (%) at 25 ppm ([5]; 1 h): 45%

Reference: patent publication US11369113B2, “Vector control compositions, methods and products utilizing same” (Syngenta Participations AG, priority 2017, dated 2022)
